Like-named read-outs stand apart in the source and are kept apart here.
Legend:
Format in all cases: cell-based
E. coli [1] = assay: Antibiotic resistance of E. coli isolates from the field trial (Group Health Urgent Care); settings: for overall resistance level: Field trial isolates; for Resistance rate in GH UC E. coli: field trial, Group Health Urgent Care
Method: The disclosed test kit and process was conducted on urinalysis-positive urine samples on-site at the HMO urgent care clinical laboratory. All urine samples obtained at Urgent Care facility were tested by the 7-SNP-based CLT(clonotyping) test and by a standard E. coli culturing test.
In total, 750 urinalysis-positive samples from the HMO urgent care lab were processed in CLT test and standard culturing test.
The E. coli clonotypes identified in the field study (out of 750 samples, see above) were compared to a reference collection of E. coli to (1) compare the clonotypes distribution, (2) compare the overall resistance profile, and (3) use the reference collection to predict if antibiotics can or cannot be allowed for use in each case in the field study (as a Lookup Table). Further, the prediction from (3) was compared to actual resistance of individual isolates and to clinical data regarding the prescription of antibiotics in each case. From this we can see if the implementation of the CLT test would improve the choice of antibacterial therapy.
For clone-based prediction of bacterial resistance of field study isolates we used a 15% resistance as a cutoff for rejection of an antibiotic.

E. coli [2] = assay: Antibiotic resistance of the HMO reference collection of E. coli (Lookup Table); settings: Reference set isolates (1227, 2010-2013)
Method: Both septatypes/clonotypes and antimicrobial profiles were identified.
In total, 1227 E. coli isolated from the HMO (Group Health) clinical lab in 2010-2013 were analyzed. All had their clonotype type determined and resistance to antibiotics tested. Septatypes were deduced from CH types (clonotypes). Red indicates resistance >30%. Yellow: more than 15% but less than 30%. Green: less than 15%.

E. coli [3] = assay: CH clonotypes correlated with antibiotic susceptibility profiles of urine E. coli isolates
From the text: This example illustrates a high-resolution fumC/fimH (CH) clonotyping scheme for E. coli based on sequence variations within these highly-variable omnipresent genes for fumarase and fimbrial adhesin of E. coli, respectively. We correlated CH clonotypes with antibiotic susceptibility profiles among 1,600 urine E. coli isolates from clinical microbiology laboratories in Seattle (Group Health, UW, Harborview, and Children's Hospitals), Minneapolis (VA Medical Center), and Munster, Germany (University Clinic).
We next determined how knowledge of cumulative clonotype vs. overall (species) antibiogram could reduce potential ‘drug-bug’ mismatches during empirical antibiotic selection. We used the IDSA-recommended 80% susceptibility cutoff level to allow the use of specific antibiotic for each clonotype.

Escherichia coli = assay: Disk diffusion susceptibility of the reference set of clinical E. coli isolates split by 7-SNP typing; settings: for prevalence of resistance: total E. coli study population
Method: This example illustrates setting up a reference database consisting of 2,559 random single-patient clinical E. coli isolates of primarily extra-intestinal origin, at eight international clinical microbiology laboratories. […] Conventional MLST (multi-locus sequence typing) was performed either in full using the standard scheme of 7 MLST loci (adk, fumC, gyrB, icd, mdh, purA, and recA) (Wirth et al., 2006. Sex and virulence in Escherichia coli: an evolutionary perspective. Mol, Microbiol, 60:1136-1151.) or as a combination of partial MLST and fumC/fimH typing, as described previously (Tchesnokova et al. 2013. Predictive diagnostics for Escherichia coli infections based on the clonal association of antimicrobial resistance and clinical outcome. J. Clin. Microbiol. 51:2991-2999). Some ST complexes, as identified by the eBURST v3 software, were defined operationally as a single ‘ST’ and were designated based on the ST identified as the cluster's founder (see Table 5) (Feil et al. 2004. eBURST: inferring patterns of evolutionary descent among clusters of related bacterial genotypes from multilocus sequence typing data. J. Bacteriol. 186:1518-1530).
Susceptibility to seven antibiotics was determined using a standardized disk diffusion method according to Clinical and Laboratory Standards Institute guidelines.

E. coli [4] = tested on: E. coli
Method: This example illustrates implementation of clonal testing in a healthcare community microbiology laboratory. We assessed the presence of E. coli sub-strains ST131 and ST69 (n=619) E. coli positive cultures. […] The tests were conducted to identify ST69 of ST131 genes specific to each clonotype on bacterial DNA isolated from patient urine specimens using RT-PCR instrumentation.

Row | Compound | overall resistance level (E. coli [1]) | overall resistance level (E. coli [2]) | Total resistant (E. coli [3]; 1,600 urine E. coli isolates) [%] | % Resistant among Allowed (E. coli [3]; isolates of clonotypes allowed for treatment) [%] | % Resistant among Rejected (E. coli [3]; isolates of clonotypes rejected for treatment) [%] | prevalence of resistance (Escherichia coli) [%] | Resistance rate in GH UC E. coli (E. coli [1]) [%] | resistance in words (Escherichia coli; septatype 261 (ST69)) | resistance in words (Escherichia coli; septatype 560 (ST131-H41)) | resistance in words (Escherichia coli; septatype 561 (ST131-H30)) | resistant (E. coli [4]; clonotype ST69) | resistant (E. coli [4]; clonotype ST131) | Resistance (E. coli [4]; study group, n=619 E. coli positive cultures) [%]
1 | CC1(C)S[C@@H]2[C@H](NC(=O)[C@H](N)c3ccccc3)C(=O)N2[C@H]1C(=O)O [Ampicillin, ampicillin] | 55.6 | 44.7 |  |  |  |  |  |  |  |  |  |  | 
2 | Cc1nnc(SCC2=C(C(=O)O)N3C(=O)[C@@H](NC(=O)Cn4cnnn4)[C@H]3SC2)s1 [cefazolin] | 12.2 | 15.5 | 19.7 | 10.7 | 32.0 | 23 |  |  |  |  |  |  | 
3 | CO/N=C(\C(=O)N[C@@H]1C(=O)N2C(C(=O)O)=C(CSc3nc(=O)c(=O)[nH]n3C)CS[C@H]12)c1csc(N)n1 [ceftriaxone] | 4.8 | 3.7 |  |  |  | 9 |  |  |  |  |  |  | 
4 | O=C1CN(/N=C/c2ccc([N+](=O)[O-])o2)C(=O)N1 [nitrofurantoin] | 2.9 | 1.3 |  |  |  | 11 | 2.9 |  |  |  |  |  | 
5 | amoxicillin/clavulanate | 21.2 | 15.4 |  |  |  | 28 | 25.6 |  |  |  |  |  | 
6 | trimethoprim/sulfamethoxazole | 25.8 | 21.4 |  |  |  | 28 | 25.7 | highly susceptible | highly resistant | highly resistant | greater than 40% | greater than 40% | 15

Source: patent US20160251702A1, “Process and Kit for Predicting Antibiotic Resistance and Susceptibility of Bacteria” (priority 2015, published 2016)
